Results as given in patent US20060281700A1, “SYNERGISTIC MODULATION OF FLT3 KINASE USING AMINOPYRIMIDINES KINASE MODULATORS” (priority 2005, published 2006).

How the values were obtained:
[1] = Tolerability in MV4-11 tumor-bearing nude mice (body weight, overt clinical signs); settings: either agent alone or in combination
Method: Female athymic nude mice weighing no less than 20-21 grams were inoculated subcutaneously in the left inguinal region of the thigh with 5×10^6 tumor cells in a delivery volume of 0.2 mL. For regression studies, the tumors were allowed to grow to a pre-determined size prior to initiation of dosing. […] Mice were dosed orally by gavage with vehicle (control group) or compound at various doses twice-daily (b.i.d.) during the week and once-daily (q.d.) on weekends. […] If tumors in the control mice reached ˜10% of body weight (˜2.0 grams), the study was to be terminated. […] During the study, tumor growth was measured three times-a-week (M, W, F) using electronic Vernier calipers. Tumor volume (mm^3) was calculated using the formula […], where L=length (mm) and W=width (shortest distance in mm) of the tumor. Body weight was measured three times-a-week and a loss of body weight >10% was used as an indication of lack of compound tolerability. […]
Female athymic nude mice weighing no less than 20-21 grams were inoculated subcutaneously in the left inguinal region of the thigh with 5×10^6 tumor cells in a delivery volume of 0.2 mL. For regression studies, the tumors were allowed to grow to a pre-determined size prior to initiation of dosing. […] During the study, tumor growth was measured three times-a-week (M, W, F) using electronic Vernier calipers. […]

[2] = system: Baf3-FLT3 cells stimulated with 100 ng/ml FLT ligand; test: Cell proliferation assay, single agents and FTI/FLT3 inhibitor combinations, Baf3-FLT3; type: cell-based, murine
Method: (§1) The cell lines that were tested included those that are dependent on FLT3ITD mutant activity for growth (MV4-11 and Baf3-FLT3ITD), FLT3 wt activity for growth (Baf3FLT3) and those that grow independent of FLT3 activity (THP-1). […] Baf3-FLT3 and Baf3-FLT3ITD cell lines were obtained from Dr. Michael Henrich and the Oregon Health Sciences University. The Baf3 FLT3 cell lines were created by stable transfection of parental Baf3 cells (a murine B cell lymphoma line dependent on the cytokine IL-3 for growth) with either wild-type FLT3 or FLT3 containing the ITD insertion in the juxatamembrane domain of the receptor resulting in its constitutive activation. Cells were selected for their ability to grow in the absence of IL-3 and in either the presence of FLT3 ligand (Baf3-FLT3) or independent of any growth factor (Baf3-ITD). […]
(§2) Dose responses for the individual compounds alone were determined for each cell line using a standard 72-hour cell proliferation assay (see FIGS. 6.1-6.8). […]
(§3) To statistically evaluate the synergy of a FLT3 inhibitor and an FTI in FLT3 dependent cell lines, dosing combinations were evaluated by the method of Chou and Talalay. See Chou T C, Talalay P. (1984) “Quantitative analysis of dose-effect relationships: the combined effects of multiple drugs or enzyme inhibitors.” Adv Enzyme Regul. […] Using this method, multiple FTI and FLT3 combinations were evaluated. […]

[3] = cited from earlier work
Baf3-ITD cells = test: Cell proliferation assay, single agents and FTI/FLT3 inhibitor combinations, Baf3-ITD; type: cell-based, murine
Method: as §1, §2, §3

[4] = multicenter Phase II trial, relapsed AML
[5] = patients with relapsed and refractory AML, phase I

Cn1cncc1C(N)(c1ccc(Cl)cc1)c1ccc2c(c1)c(-c1cccc(Cl)c1)cc(=O)n2C (single isomer, unassigned; (+)) [Tipifarnib, (+)-6-[amino(4-chlorophenyl)(1-methyl-1H-imidazol-5-yl)methyl]-4-(3-chlorophenyl)-1-methyl-2(1H)-quinolinone]
overt toxicity ([1]; 9-day treatment): No overt toxicity
overt toxicity ([1]; 16-day treatment): No overt toxicity
increase in potency of Tipifarnib with a single sub-IC50 dose of FLT3 inhibitor Compound A ([2]; Baf3-FLT3, Compound A 100 nM): more than 3 fold
IC50 ([2]; Mus musculus, Baf3-FLT3 proliferation, FTI alone or in the combination named): 0.00185 µM
>50% reduction in bone marrow blasts [3, 4]: 31 of 50
complete responses (bone marrow blasts <5%) [3, 4]: 17 of 50
patients achieving complete remission [3, 5]: 2 patients
response rate [3, 5]: ~30%
increase in potency of Tipifarnib with a single sub-IC50 dose of FLT3 inhibitor Compound A (Baf3-ITD cells; Baf3-ITD, Compound A 50 nM): more than 3 fold
IC50 (Baf3-ITD cells; Mus musculus, Baf3-ITD proliferation, FTI alone or in the combination named): 0.548 µM
